Read-outs that look alike come from different tables or passages of the source.
Tests used:
[1] = test system: male or female Aedes aegypti antennae; experiment: Coupled gas chromatographic-electroantennographic detection (GC-EAD) of garlic oil extract
Experimental: FIG. 1 illustrates flame ionization detector (FID) and electroantennograhic detector (EAD: male or female Aedes aegypti antennae) responses to aliquots of the low boiling temperature portion of garlic oil extract. Chromatography: Hewlett Packard (HP) gas chromatograph equipped with a fused silica column (30 m×0.32 mm ID) coated with DB-5; injector and detector temperature: 250° C.; temperature program: 50° C.
Aliquots of garlic oil extracts were then subjected to coupled gas chromatographic-electroantennographic detection (GC-EAD) analysis. Fourteen components (10 shown in FIG. 1) elicited responses from female or male mosquito antennae. Some of these components were isolated by high-performance liquid chromatography (HPLC) for identification by nuclear magnetic resonance spectroscopy (NMR). Other components were identified (compounds 11-14 in TABLE 2) by coupled GC-mass spectrometry and by retention index calculations. […] Four of the 10 components in FIG. 1 were tentatively identified by comparing their mass spectra and retention indices with those reported in the literature (Block et al. 1998).
(§1) Components with high molecular weight (>250 daltons) are advantageous in that they: 1) dissipate slowly from treated surfaces; 2) provide long-lasting protection against mosquitoes and 3) convey little, if any, offensive smell. The relative abundance of such components was enhanced by treating garlic oil under vacuum, thus stripping away lower-boiling components. In GC-EAD analyses of the high-boiling residue, four components elicited responses from mosquito antennae.

mosquitoes = experiment: General bioassay procedure with garlic oil, its components and fractions (mosquito species not given); format: in vivo
Experimental: (§2) Candidate repellents and deterrents were bioassayed according to a modified protocol from the World Health Organization (1996). At least 1 hour prior to each bioassay, 75 host-seeking non blood-fed, nulliparous, 5- to 8-day-old female Aedes aegypti, Anopheles gambiae or Culex quinquefasciatus were placed into a wood-framed cage (26.5 cm on each side and 42.5 cm high) with a wooden floor, screened mesh sides and top, and a clear acrylic front fitted with a cotton stockinette sleeve (10 cm diameter). The test subject's arm was covered with an elbow-length polyethylene glove with an excised patch (16.6 cm long, 6 cm wide) to expose the ventral forearm of the test subject. Candidate deterrents were formulated in mineral (paraffin) oil and applied to the exposed forearm 5 min prior to inserting the arm into the cage. The inserted arm remained in the cage for 3 min every 30 min. Prior to each 3-min bioassay period, the hand of the untreated arm was inserted into the cage to ascertain that it received 10 bites within 30 sec as an indication of “biting pressure”.
(§3) The bioassay was terminated when the treated arm received ≧2 bites in one 3-min bioassay period or one bite in each of two consecutive bioassay periods. The time elapsed from experiment initiation to first bite was recorded as deterrent failure or complete protection time.
(§4) N,N-diethyl-m-toluamide formulated in ethanol at a corresponding dose served as a positive control, and mineral oil by itself served as a negative control. On each day, only one candidate compound was tested, ensuring that any residual material in the chamber had disappeared before the next bioassay.
Garlic oil (Allium sativum—Mexico; Clearwater Soap Works, Box 1775 RR1, Clearwater, BC V0E 1N0, Canada) was formulated in mineral oil and tested using the general bioassay procedure described in EXAMPLE 2 at a dose of 0.1 mg per cm^2 of arm surface. It expressed repellence and deterrence for ˜30 min.
Some of the 10 components in FIG. 1 were bioassayed singly (see general bioassay procedure) and in various combinations, all of which were as deterrent to mosquitoes as garlic oil.
To determine the most deterrent component(s) in garlic oil, it was fractionated by HPLC into four fractions, each containing one or more of the EAD-active components (compounds 1-10 in FIG. 1 and 11-14 in TABLE 2). Each fraction was then bioassayed and shown to be similarly effective in repelling and deterring mosquitoes.
as §1

Aedes aegypti = experiment: Arm-in-cage repellent/deterrent bioassay on exposed human forearm (modified WHO protocol), Aedes aegypti; format: in vivo; settings: for pest or weed control at 0.1 mg/cm2: Aedes aegypti, topical, (C-T)/C x 100 at time of failure, read-out: Percent repellence
Experimental: as §2, §3, §4
To determine the repellence and deterrence of 8-allylsulfanyloctan-1-ol against Aedes aegypti, a 5%, 10% or 25% formulation of 8-allylsulfanyloctan-1-ol in mineral oil was applied in Experiments 1-3 at a dose of 1.5 mg (total composition) per cm^2 to the skin of the test person, and was bioassayed according to the protocol described under EXAMPLE 2. In Experiment 4, mineral oil by itself served as a negative control and was bioassayed at the same dose (1.5 mg per cm^2) as in Experiments 1-3. Each of Experiments 1-4 was replicated four times.
To compare the repellence and deterrence against Aedes aegypti caused by 8-allylsulfanyloctan-1-ol as a single active ingredient and by 8-allylsulfanyloctan-1-ol in combination with vanillin as a second active ingredient, we tested a 6.7% emulsion of vanillin (Experiment 14), a 6.7% emulsion of 8-allylsulfanyloctan-1-ol (Experiment 15), and a 13.4% emulsion of 8-allylsulfanyloctan-1-ol plus vanillin (1:1 ratio) (Experiment 16). 8-Allylsulfanyloctan-1-ol and vanillin were formulated in Emulsion No. 1 (see EXAMPLE 9). In each of Experiments […], test stimuli were applied at a dose of 1.5 mg per cm^2 to the skin of the test person, and were bioassayed according to the protocol described under EXAMPLE 2. In Experiment 17, Emulsion No. 1 served as a positive control and was tested at the same dose (1.5 mg per cm^2) as in Experiments 14-16.
To be able to compare the repellence and deterrence caused by N,N-diethyl-m-toluamide and by 8-allylsulfanyloctan-1-ol plus vanillin in Emulsion No. 1 (EXAMPLE 9), Experiment 26 tested a 6.7% formulation of N,N-diethyl-m-toluamide in ethanol (the best formulant for DEET) for protection from bites by Aedes egypti. In each replicate, a dose of 1.5 mg per […] was applied to the skin of the test person and bioassayed according to the protocol described under EXAMPLE 2.
To be able to further compare the deterrence caused by N,N-diethyl-m-toluamide with that caused by 8-allylsulfanyloctan-1-ol plus vanillin, Experiment 27 tested a 10.4% formulation of N,N-diethyl-m-toluamide in ethanol, and Experiment 28 tested 8-allylsulfanyloctan-1-ol (10.4%) plus vanillin (7.9%) in Emulsion No. 2 (EXAMPLE 10). […]

[2] = Dosage >0.1 mg/cm^2 (so in the source)

## C=CCSSCCCSSCC=C [Compound 11, 4,5,9,10-tetrathiatrideca-1,12-diene]
[1]
  electroantennographic (EAD) response of mosquito antennae: Antennal stimulatory
mosquitoes
  repellent and deterrent effect in bioassays (in words): strong repellent and deterrent effect
Aedes aegypti; Dosage 0.1 mg/cm^2
  pest or weed control at 0.1 mg/cm2: 85%
Aedes aegypti; [2]
  pest or weed control at 0.1 mg/cm2: 92%
  Failure time: 67.7 min
Aedes aegypti; Dosage 0.1 mg/cm^2, 0 = immediate failure
  Failure time: 0 min
